# System: M17-TAU P301L cells
# Assay: TAU cytotoxicity assay: LDH leakage of retinoic acid incubated M17-TAU P301L cells
# Assay type: cell-based, human
# Conditions: Homo sapiens, 168 h, reduction of LDH activity of retinoic acid incubated M17-TAU P301L cells, 7 days
# Description: A TAU expression plasmid was constructed by sub-cloning the cDNA of human TAU-P301 L (encoding for TAU with proline 301 substituted by a leucine residue) into mammalian expression vector pcDNA3.1 resulting in plasmid pcDNA3.1-TAU P301L. Plasmids pcDNA3.1 and pcDNA3.1-TAU P301L were transfected to human neuroblastoma cells ([…]; ATCC No. CRL-2267) and independent clonal lines with the plasmids stably integrated into the genome were selected. […] Expression of the TAU P301L genes in the cell lines was confirmed by Western analysis.
# In degenerated or dead cells lactate dehydrogenase (LDH) is leaked out of the cells into the extracellular environment due to a loss of plasma-membrane integrity. This principle was used to determine cytotoxicity by quantifying the level of leaked LDH into the growth medium.
# The detailed method for determining TAU cytotoxicity was as follows: From appropriate precultures of M17-3.1 and M17-TAU(P301L) cells were seeded at 2500 cells/cm2 in Optimem Reduced Serum without phenol red (Gibco, Cat. 31985-047) supplemented with 1% fetal calf serum, 1 mM sodium pyruvate, 1× non-essential amino acids, 500 μg/ml G418 0.5× antibiotic/antimycotic. After 3 h of incubation at 37° C./5% CO2 1 volume of Optimem Reduced Serum (same as described above; except without fetal calf serum) supplemented with 2.5 μM retinoic acid (RA) was added. The cells were further incubated for 7 days. Subsequently, LDH activity was determined using Promega Cytotox 96 Non-Radioactive cytotoxicity assay, (Cat. G1780) according the supplier's instructions.
# The M17-TAU P301L cell line made it possible to assess the ability of novel compounds to counteract TAU cytotoxicity. […] These measurements were used to calculate EC50 values of table 2.
# Exemplary compounds of the present invention are shown in table 2, with their chemical name and their EC50 value (expressed in nM) as determined from example 196 in the Tau-induced toxicity experiment.
row,SMILES,EC50 [nM]
1,"O=C(NCCc1c[nH]c2ccc(Cl)cc12)C1=N[C@@H](C2CCCCC2)CO1 [Example D59, (S)-N-(2-(5-chloro-1H-indol-3-yl)ethyl)-4-cyclohexyl-4,5-dihydrooxazole-2-carboxamide]",211
2,"O=C(NCCc1c[nH]c2ccc(Cl)cc12)c1noc(Cc2ccc(OC(F)(F)F)cc2)n1 [Example D185, N-(2-(5-chloro-1H-indol-3-yl)ethyl)-5-(4-(trifluoromethoxy)benzyl)-1,2,4-oxadiazole-3-carboxamide]",42
3,"COc1ccc2[nH]cc(CCNC(=O)c3sc(-c4ccc(C)cc4)nc3C)c2c1 [Example D32, N-(2-(5-methoxy-1H-indol-3-yl)ethyl)-4-methyl-2-p-tolylthiazole-5-carboxamide]",50
4,"CC(c1ccccc1)N1CCC(C(=O)NCCc2c[nH]c3ccc(Cl)cc23)C1=O (single isomer, unassigned) [D156 Fraction A, N-(2-(5-chloro-1H-indol-3-yl)ethyl)-2-oxo-1-(1-phenylethyl)pyrrolidine-3-carboxamide]",819
5,"O=C(NCCc1c[nH]c2ccc(Cl)cc12)c1noc(Cc2ccccc2F)n1 [Example D170, N-(2-(5-chloro-1H-indol-3-yl)ethyl)-5-(2-fluorobenzyl)-1,2,4-oxadiazole-3-carboxamide]",45
6,"O=C(NCCc1c[nH]c2ccc(Cl)cc12)C1CCN(c2ccc(Cl)cc2)C1=O (stereo not drawn) [Example D153, N-(2-(5-chloro-1H-indol-3-yl)ethyl)-1-(4-chlorophenyl)-2-oxopyrrolidine-3-carboxamide]",365
7,"CCCc1cc(-c2nc(C)c(C(=O)NCCc3c[nH]c4ccccc34)s2)ccn1 [Example D33, N-(2-(1H-indol-3-yl)ethyl)-4-methyl-2-(2-propylpyridin-4-yl)thiazole-5-carboxamide]",56
8,"O=C(NCCc1c[nH]c2ccc(-c3ccccc3)cc12)c1cc(Cc2cc(F)ccc2F)on1 [Example D140, 5-(2,5-difluorobenzyl)-N-(2-(5-phenyl-1H-indol-3-yl)ethyl)isoxazole-3-carboxamide]",316
9,"Cc1cccc(Cc2nc(C(=O)NCCc3c[nH]c4ccc(Cl)cc34)no2)c1 [Example D184, N-(2-(5-chloro-1H-indol-3-yl)ethyl)-5-(3-methylbenzyl)-1,2,4-oxadiazole-3-carboxamide]",26
10,"Cc1ccc2[nH]cc(CCNC(=O)c3cc(Cc4cccc(F)c4)on3)c2c1 [Example D14, 5-(3-fluorobenzyl)-N-(2-(5-methyl-1H-indol-3-yl)ethyl)isoxazole-3-carboxamide]",19
11,"Cc1ccc(Cc2cc(C(=O)NCCc3c[nH]c4ccc(Cl)cc34)no2)cc1 [Example D12, N-(2-(5-chloro-1H-indol-3-yl)ethyl)-5-(4-methylbenzyl)isoxazole-3-carboxamide]",17
12,"O=C(NCCc1c[nH]c2ccc(Cl)cc12)c1cc(-c2ccccc2)on1 [Example D36, N-(2-(5-chloro-1H-indol-3-yl)ethyl)-5-phenylisoxazole-3-carboxamide]",61
13,"O=C(NCCc1c[nH]c2ccc(Cl)cc12)c1noc(Cc2ccc(F)cc2F)n1 [Example D189, N-(2-(5-chloro-1H-indol-3-yl)ethyl)-5-(2,4-difluorobenzyl)-1,2,4-oxadiazole-3-carboxamide]",15
14,"O=C(NCCc1c[nH]c2ccc(Cl)cc12)c1noc(Cc2cccc(F)c2)n1 [Example D169, N-(2-(5-chloro-1H-indol-3-yl)ethyl)-5-(3-fluorobenzyl)-1,2,4-oxadiazole-3-carboxamide]",26
15,"O=C(NCCc1c[nH]c2c(F)cc(Cl)cc12)c1cc(Cc2cc(F)ccc2F)on1 [Example D141, N-(2-(5-chloro-7-fluoro-1H-indol-3-yl)ethyl)-5-(2,5-difluorobenzyl)isoxazole-3-carboxamide]",233
16,"O=C(NCCc1c[nH]c2ccc(Cl)cc12)c1cc(Cc2ccco2)on1 [Example D17, N-(2-(5-chloro-1H-indol-3-yl)ethyl)-5-(furan-2-ylmethyl)isoxazole-3-carboxamide]",22
17,"Cc1ccc(N2CCC(C(=O)NCCc3c[nH]c4ccc(Cl)cc34)C2=O)cc1 (stereo not drawn) [Example D133, N-(2-(5-chloro-1H-indol-3-yl)ethyl)-2-oxo-1-p-tolylpyrrolidine-3-carboxamide]",46
18,"COc1ccc(-c2cc(C(=O)NCCc3c[nH]c4ccc(Cl)cc34)no2)cc1 [Example D49, N-(2-(5-chloro-1H-indol-3-yl)ethyl)-5-(4-methoxyphenyl)isoxazole-3-carboxamide]",140

row,SMILES,EC50 [nM]
1,"O=C(NCCc1c[nH]c2ccc(Cl)cc12)c1cc(-c2ccc(Cl)cc2)on1 [Example D56, N-(2-(5-chloro-1H-indol-3-yl)ethyl)-5-(4-chlorophenyl)isoxazole-3-carboxamide]",190
2,"O=C(NCc1c[nH]c2ccc(Cl)cc12)c1cc(Cc2cccc(F)c2)on1 [Example D34, N-((5-chloro-1H-indol-3-yl)methyl)-5-(3-fluorobenzyl)isoxazole-3-carboxamide]",59
3,"O=C(NCCc1c[nH]c2ccc(C(F)(F)F)cc12)c1cc(Cc2cc(F)ccc2F)on1 [Example D135, 5-(2,5-difluorobenzyl)-N-(2-(5-(trifluoromethyl)-1H-indol-3-yl)ethyl)isoxazole-3-carboxamide]",144
4,"O=C(NCCc1c[nH]c2ccc(Cl)cc12)c1noc(Cc2ccc(C(F)(F)F)cc2)n1 [Example D187, N-(2-(5-chloro-1H-indol-3-yl)ethyl)-5-(4-(trifluoromethyl)benzyl)-1,2,4-oxadiazole-3-carboxamide]",32
5,"O=C(NCCc1c[nH]c2ccccc12)c1cc(Cc2cccc(F)c2)on1 [Example D31, N-(2-(1H-indol-3-yl)ethyl)-5-(3-fluorobenzyl)isoxazole-3-carboxamide]",44
6,"Cc1nc(-c2ccccc2)sc1C(=O)NCCc1c[nH]c2ccc(Cl)cc12 [Example D46, N-(2-(5-chloro-1H-indol-3-yl)ethyl)-4-methyl-2-phenylthiazole-5-carboxamide]",123
7,"O=C(NCCc1c[nH]c2ccc(Cl)cc12)C1=N[C@H](C2CCCCC2)CO1 [Example D58, (R)-N-(2-(5-chloro-1H-indol-3-yl)ethyl)-4-cyclohexyl-4,5-dihydrooxazole-2-carboxamide]",202
8,"Cc1ccc(-c2nc(C)c(C(=O)NCCc3c[nH]c4ccc(Cl)cc34)s2)cc1 [Example D45, N-(2-(5-chloro-1H-indol-3-yl)ethyl)-4-methyl-2-p-tolylthiazole-5-carboxamide]",113
9,"Cc1nc(-c2cnccn2)sc1C(=O)NCCc1c[nH]c2ccc(Cl)cc12 [Example D73, N-(2-(5-chloro-1H-indol-3-yl)ethyl)-4-methyl-2-(pyrazin-2-yl)thiazole-5-carboxamide]",515
10,"O=C(NCCc1c[nH]c2ccc(Cl)cc12)c1cc(-c2cccc3c2OCCO3)on1 [Example D38, N-(2-(5-chloro-1H-indol-3-yl)ethyl)-5-(2,3-dihydrobenzo[b][1,4]dioxin-5-yl)isoxazole-3-carboxamide]",80
11,"O=C(NCCc1c[nH]c2ccc(Cl)cc12)c1cc(Cc2cc(F)cc(F)c2)on1 [Example D131, N-(2-(5-chloro-1H-indol-3-yl)ethyl)-5-(3,5-difluorobenzyl)isoxazole-3-carboxamide]",13
12,"O=C(NCCc1c[nH]c2ccc(Cl)cc12)C1=N[C@@H](Cc2ccccc2)CO1 [Example D80, (S)-4-benzyl-N-(2-(5-chloro-1H-indol-3-yl)ethyl)-4,5-dihydrooxazole-2-carboxamide]",915
13,"O=C(NCCc1c[nH]c2ccc(Cl)cc12)c1noc(Cc2cc(F)cc(F)c2)n1 [Example D182, N-(2-(5-chloro-1H-indol-3-yl)ethyl)-5-(3,5-difluorobenzyl)-1,2,4-oxadiazole-3-carboxamide]",11
14,"O=C(NCCc1c[nH]c2ccc(Cl)cc12)c1cc(Cc2ccccc2)on1 [Example D7, 5-benzyl-N-(2-(5-chloro-1H-indol-3-yl)ethyl)isoxazole-3-carboxamide]",15
15,"O=C(NCCc1c[nH]c2ccc(Cl)cc12)c1cc(Cc2ccsc2)on1 [Example D25, N-(2-(5-chloro-1H-indol-3-yl)ethyl)-5-(thiophen-3-ylmethyl)isoxazole-3-carboxamide]",35
16,"COc1ccc(Cc2cc(C(=O)NCCc3c[nH]c4ccc(Cl)cc34)no2)cc1 [Example D10, N-(2-(5-chloro-1H-indol-3-yl)ethyl)-5-(4-methoxybenzyl)isoxazole-3-carboxamide]",17
17,"O=C(NCCc1c[nH]c2ccc(Cl)cc12)c1cc(Cc2ccc(F)c(F)c2)on1 [Example D129, N-(2-(5-chloro-1H-indol-3-yl)ethyl)-5-(3,4-difluorobenzyl)isoxazole-3-carboxamide]",8
18,"COc1ccccc1Cc1cc(C(=O)NCCc2c[nH]c3ccc(Cl)cc23)no1 [Example D8, N-(2-(5-chloro-1H-indol-3-yl)ethyl)-5-(2-methoxybenzyl)isoxazole-3-carboxamide]",16

# — patent US8618138B2, “Indole amide derivatives and related compounds for use in the treatment of neurodegenerative diseases” (Katholieke Universiteit Leuven, K.U. Leuven R&D, priority 2009, dated 2013)
